Measured values reported in ChEMBL document CHEMBL3507680, “University of Dundee, Gates Library screen for HepG2 cell viability”.

test: Human HepG2 cell viability assay in 384 well format; assay type: toxicity, cell-based; design: dose 125 nL, time 70.5 hour; cytotoxicity at 70.5 h: concentration not given beside the values; conditions: HepG2 cells, read-out: Inhibition

| Structure (SMILES) | cytotoxicity at 70.5 h |
| --- | --- |
| Fc1cnc(N2CCCn3c(nnc3Cn3ccnc3)C2)nc1 | -4.74% |
| COCCn1cncc1-c1nc2c([nH]1)CC(C)(C)CNC2=O | -4.1% |
| CC(C)(CO)Nc1ccc(-c2nc(-c3ccccc3F)no2)cn1 | -5.95% |
| NC(=O)C1CCN(C(=O)c2ccn(-c3ccc(F)cc3)n2)C1 (centres undefined) | -1.48% |
| O=C(NC1CC1)c1cnc2n1CCCC2 | 6.87% |
| COc1cc(OC)cc(C2(O)CCN(Cc3nc(C)c(C)o3)CC2)c1 | 0.268% |
| CC(=O)N1CCN(Cc2ccncc2)CC2(CC(=O)N(C)C2)C1 (centres undefined) | -7.88% |
| COc1ccc(CN2CCc3nc(C4CCCCN4C)ncc3C2)cc1 (centres undefined) | -10.4% |
| CN(CC(=O)N(C)C(c1cccnc1)c1ccc(F)c(F)c1)C1CC1 (centres undefined) | 22.6% |
| CCN(CC)CCn1cc(NC(=O)CNc2ccccc2OC)cn1 | 7.01% |
| CC(Cn1ccnc1)NCc1cc(Br)c2c(c1)OCO2 (centres undefined) | 12.5% |
| Cc1cccc(N2CCC3(CCCN3Cc3cnn(C)c3C)CC2)n1 | 2.08% |
| O=C(c1scc2c1OCCO2)N1CCOC(Cc2ccc(F)cc2)C1 (centres undefined) | -0.136% |
| Cc1nc(C2CCCN2C(=O)Cc2cccc(F)c2)nc(O)c1C (centres undefined) | 21.4% |
| COCCN1C[C@H]2CC[C@@H]1CN(Cc1cc(=O)c3cc(C)ccc3[nH]1)C2 | -7.09% |
| Cc1ccc(OCCN(C)Cc2nc3c(cnn3C)c(=O)[nH]2)cc1 | -8.39% |
| CC(C)(C)Cc1noc2ncc(C(=O)N3CCCSCC3)cc12 | 11.1% |
| Cn1ccc(C(=O)NCc2ccc(N3CCCCCC3)nc2)cc1=O | -12.5% |
| CCSc1ncc(-c2nccn2CCN(C)C)cn1 | 8.9% |
| CC(C(=O)N1CCOCC1)n1cc(Br)cn1 (centres undefined) | 12.3% |
| c1ccc(-n2cc(CNC3CCc4ncnn4C3)nn2)cc1 (centres undefined) | -7.65% |
| Cc1ccc(Cl)cc1NCc1nc2[nH]c(C)c(C)c(=O)n2n1 | -0.0581% |
| O=C(c1cccc(S(=O)(=O)NCCCc2ncc[nH]2)c1)N1CCOCC1 | -9.14% |

| Structure (SMILES) | cytotoxicity at 70.5 h |
| --- | --- |
| CCc1cc(CNC(=O)C2CCC(=O)N(Cc3ccccc3F)C2)on1 (centres undefined) | -9.72% |
| CC(=O)N1CC(=O)N(c2cnn(C)c2)CC12CCN(Cc1ccsc1)C2 (centres undefined) | 21.7% |
| CCC(C(=O)NCc1ccncc1)N(c1cccc(Cl)c1)S(C)(=O)=O (centres undefined) | -2.79% |
| CNC(=O)c1ccc(NC(=O)NC(C)c2cc(C)oc2C)cc1 (centres undefined) | -8.2% |
| CCc1noc(CNc2ccc(F)cc2OCC2CC2)n1 | -7.55% |
| CN(C)CC(=O)N1CC[C@H]2OCC[C@@]2(COCC2CC2)C1 | -11.9% |
| Cc1cc(C(=O)N2C[C@@H](CN(C)CCN(C)C)[C@@H](CO)C2)nc(C)n1 | 21.1% |
| Cc1cccc(N2CC3(CCN(c4nncs4)C3)CC2=O)c1 (centres undefined) | -4.91% |
| Cc1ncccc1CNCC1CCN(CCO)CC1 | -0.718% |
| c1csc(CN2CCc3ncnc(C4CCOC4)c3CC2)c1 (centres undefined) | -8.76% |
| Cc1ccc2oc(SCC(N)=O)nc2n1 | -21.9% |
| O=C(NCCc1ccccn1)C1=NN(c2ccccc2)C(=O)CN1 | -6.71% |
| Cc1cc(OCC(N)=O)ccc1NC(=O)C(C)Cc1ccccc1F (centres undefined) | -2.1% |
| Cc1nn(C)c(C)c1S(=O)(=O)N1CC[C@H]2O[C@@H](C)C[C@H]2C1 | -8.7% |
| CSc1ccccc1CN1C[C@@H]2CC[C@H](C1)N(CC1CC1)C2=O | 26.6% |
| CN1CCC(NC(=O)Nc2cnn(-c3ccccc3Cl)c2)C1=O (centres undefined) | -7.73% |
| O=C(Nc1cnccn1)[C@@H]1COC[C@H]2CN(C3CCC3)C[C@H]21 | -87.9% |
| COc1cccc(CNCc2ccnc(N3CCOCC3)c2)c1OC | -4.37% |
| Cc1ccc(NC2CCN(C(=O)c3cncnc3C)CC2)nn1 | 14.7% |
| Cc1nc(CN2C[C@@H]3CN(C(=O)c4ccco4)C[C@@H]3C2=O)cs1 | -3.99% |
| CCc1ocnc1C(=O)N1CCC2(CCCN(CC(C)(C)C)C2=O)C1 (centres undefined) | -6.31% |
| COc1ccc(OC)c(CNCc2ccnc(N3CCCCC3)c2)c1 | -8.18% |
| CCOCc1nc2c(c(NCc3cc(C)on3)n1)CCN(C(C)=O)CC2 | -7.96% |

| Structure (SMILES) | cytotoxicity at 70.5 h |
| --- | --- |
| Cc1[nH]ncc1C(=O)N1CCCC1c1noc(C2CC2)n1 (centres undefined) | 19.4% |
| Cc1ccc(CN2CCn3cc(CNC(=O)c4cnn(C)c4)nc3C2)s1 | -102% |
| O=C(CCOc1ccccc1F)N1CCCC1Cn1cccn1 (centres undefined) | 0.51% |
| O=C(c1ccccc1OCC1CC1)N1CCCC(n2ccnc2)C1 (centres undefined) | -9.12% |
| CCn1ccnc1CN1CCN(CC(=O)NC(C)(C#N)C2CC2)CC1 (centres undefined) | -6.12% |
| CN(C)C(=O)NCc1cc2n(n1)CCCN(C[C@H]1[C@@H]3CNC[C@@H]31)C2 | -0.846% |
| O=C(NCCn1cccn1)c1nnc2ccccc2n1 | 19.4% |
| Cc1n[nH]cc1CNCC(c1cccc(F)c1)N(C)C (centres undefined) | -1.43% |
| COc1cc(-c2noc(C(CC(C)C)N3CCCCC3=O)n2)ccn1 (centres undefined) | -2.9% |
| COc1ccc(Cl)cc1CN(C)C(=O)CN1C(=O)OC[C@@H]1C(C)C | -6.97% |
| CCC(=O)N1CCC1c1cc(NC2CCCC2)nc(C)n1 (centres undefined) | -2.68% |
| Cc1ccc(-c2nc(CN3CCOC(Cn4cccn4)C3)co2)cc1 (centres undefined) | -5.71% |
| CNC(=O)Cc1ccc(NC(=O)NCc2nc(C)sc2C)cc1 | 13.2% |
| Cc1cc(C)n(CCCN(C)c2cc(N(C)C)ncn2)n1 | -7.08% |
| CCOc1ccccc1N(C)C(=O)c1cscn1 | 0.806% |
| CCNC(=O)CS(=O)(=O)NC1CCC(C)CC1 (centres undefined) | -14.8% |
| Cn1cccc1C(=O)Nc1cc(F)ccc1OCC1CCCO1 (centres undefined) | -17.4% |
| COCCNc1nnc(-c2ccc(C)nc2)s1 | 1.91% |
| CCOCCC(=O)N1CCCC(c2ncc[nH]2)C1 (centres undefined) | -0.67% |
| CN1CCO[C@H]2CN(S(=O)(=O)c3ccc(C#N)cc3)C[C@H]21 | 3.3% |
| CCc1c(C(=O)O)nnn1-c1cc(C)ccc1C | -2.96% |
| CCNc1nc(-c2cccnc2)c(-c2ccnc(N3CCCC3)n2)s1 | -6.77% |
| CC1(C)CCN1C(=O)c1cc(F)cc2[nH]cnc12 | -9.74% |

| Structure (SMILES) | cytotoxicity at 70.5 h |
| --- | --- |
| CCn1cc(NC(=O)NCC(C)N2CCCC2)cn1 (centres undefined) | 22.1% |
| COCC1CN(C(=O)c2cccc(C)n2)Cc2ncnn2C1 (centres undefined) | 17.7% |
| O=C(CCC1CCCO1)NCCCO (centres undefined) | -18.3% |
| CCN(CC)C(=O)c1cc(C2(C)CCN(C(C)=O)CC2)nc(C)n1 | 4.01% |
| CC(C(=O)N(Cc1ccc(F)cc1)CC(F)(F)F)S(C)(=O)=O (centres undefined) | -1.63% |
| O=C1[C@H]2CCCC[C@H]2C(=O)N1c1cnn(Cc2cccc(F)c2)c1 | 1.76% |
| Cc1nnc(NC(=O)NCc2ccc(F)cc2)s1 | -1.95% |
| Cc1cc(C)n(-c2cncc(NCCNC(=O)C(C)(C)C)n2)n1 | -9.22% |
| N#Cc1ccnc(N2CCN(CC(O)c3ccc(F)c(F)c3)CC2)c1 (centres undefined) | -2.47% |
| CCc1noc(-c2ccc(SCC(=O)O)nc2)n1 | 13.8% |
| CCc1ccsc1C(=O)N1CCCC(c2noc(C)n2)C1 (centres undefined) | -2.57% |
| Cc1nc(Nc2cnccn2)cc(C2CCN(CCO)C2)n1 (centres undefined) | -9.95% |
| O=C(COCCOc1ccccc1)Nc1ccnn1CC1CCOC1 (centres undefined) | -21.2% |
| C=C(C)CN(CC)C(=O)c1cc(F)ccc1N1CCN(C)CC1 | -12.2% |
| CC(=O)N1CCC(Oc2ccc(C#N)cn2)CC1 | -3.09% |
| N#Cc1cccc(CNCCC(=O)N2CCc3sccc3C2)c1 | -3.34% |
| CCN(CCNC(=O)C1CCCN(C(C)=O)C1)c1ccccc1C (centres undefined) | -10.5% |
| COC(=O)CCC(=O)N1CCc2nc(C(=O)N3CCOCC3)sc2CC1 | 1.24% |
| C[C@@H]1CN(C(=O)CCN2CCCC2)CC[C@@]1(O)C1CCOCC1 | -6.69% |
| CNC(=O)CN(C)c1cncc(OCC(C)C)n1 | -5.85% |
| Cn1ccc(C(=O)N2CCCCC2c2cc(CCO)[nH]n2)n1 (centres undefined) | -1.7% |
| Cc1c[nH]nc1C1CCCCN1C(=O)CNS(C)(=O)=O (centres undefined) | 9.79% |
| Cc1nn(C)c(C)c1C1CCCN1CC(=O)N(C)c1nccs1 (centres undefined) | -3.66% |

| Structure (SMILES) | cytotoxicity at 70.5 h |
| --- | --- |
| Cc1ccc(NC(=O)N2CC(C(=O)NC(C)C)C3(CCOCC3)C2)cc1 (centres undefined) | -6.28% |
| CCc1sc(C(=O)Nc2cnn(CC(N)=O)c2)cc1C | 14.8% |
| CNC(=O)[C@@H]1[C@@H](c2ccccc2)CN2CCN(Cc3cccs3)C[C@H]12 | 0.531% |
| O=C(N1CCCC1)N1C[C@H]2CC[C@@]3(N=C(c4ccccc4)NC3=O)[C@H]2C1 | 12.6% |
| Cc1cccc(N2N=C(C(=O)NC(C)CCc3ccco3)CCC2=O)c1 (centres undefined) | 28.5% |
| O=C(C1CCOCC1)N1CC[C@@H]2[C@H]1CCC(=O)N2c1ccccc1 | 13.7% |
| Cc1csc(C2CCCN(C(=O)c3ccc(=O)n(C)n3)C2)n1 (centres undefined) | -9.44% |
| CO[C@H]1CCN(c2ccc(C)nn2)[C@H]1Cc1cnn(C)c1 | 5.26% |
| O=C(NCCc1c[nH]cn1)c1ccc(S(=O)(=O)NC2CCCC2)cc1 | -1.62% |
| COc1ncc(NCc2ccc(C#N)cc2)cc1C(N)=O | -4.6% |
| O=C(NC1CCCc2nc(N3CCOCC3)ncc21)C1CCCCC1 (centres undefined) | 13.8% |
| Cc1cc(C(=O)N(C)Cc2ccn[nH]2)c(NC(=O)C(C)(C)C)s1 | -9.88% |
| O=C(O)CCn1ccc2cc(Br)ccc21 | 9.71% |
| Cc1cc(NC(=O)C(C)Nc2cccc(COCc3ccco3)c2)on1 (centres undefined) | -20.2% |
| CC(C)COC(=O)N1CCCN(C(=O)c2ccnc(N(C)C)c2)CC1 | 1.08% |
| CCCn1ccc(C(=O)N2CCC(C)CC2)n1 | -11.6% |
| Cc1cccc2c1nc1n2[C@@H](CNC(=O)c2cnccn2)COC1 | 12.8% |
| COc1cc(CCC(=O)NC2CCCN(C)C2)ccc1OCC(F)(F)F (centres undefined) | -7.07% |
| O=C(N[C@@H]1CNCCC[C@H]1O)c1ccc(OCCN2CCCC2)cc1 | -3.24% |
| Cc1oc(-c2cccc(F)c2F)nc1CN(C)CCO | -7.35% |
| CC(C)n1cnnc1SCCN(C)c1ccccc1 | -6.85% |
| O=C(NCc1cc[nH]n1)NCC(c1ccco1)N1CCCC1 (centres undefined) | -13.5% |
